In patent US8212022B2, “Effect of carbohydrate concentration on sucralose extraction efficiency” (Tate & Lyle Technology Limited, priority 2008, dated 2012):

Test: Partition coefficient K of sucralose between ethyl acetate and water (equal volumes)
Format: physicochemical
Details: for partition coefficient, K: equal volumes of ethyl acetate and water
Excerpt: Unless the context indicates otherwise, in the specification and claims, the terms organic solvent, first organic solvent, second organic solvent, tetrachloro saccharide, trichloro saccharide, dichloro saccharide, salt, sucralose-6-ester, carbohydrate, and similar terms also include mixtures of such materials. The term saccharide includes monosaccharide, disaccharides, and polysaccharides. Solvent means a liquid that dissolves another material. An aqueous solvent is one in which water is the primary (greater than 50 vol % of the solvents present) or only solvent. Partition coefficient, K, of a carbohydrate between an organic solvent and water is the concentration of the carbohydrate in the organic phase divided by the concentration of the carbohydrate in the aqueous phase when equal volumes of organic solvent and water are used. […] Crystallization includes processes in which a solution is rendered saturated or supersaturated with respect to a dissolved component, and the formation of crystals of this component is achieved. The initiation of crystal formation can be spontaneous, or it can require the addition of seed crystals. Crystallization also describes the situation in which a solid or liquid material is dissolved in a solvent to yield a solution which is then rendered saturated or supersaturated so as to obtain crystals. Also, included in the term crystallization are the ancillary processes of washing the crystals with one or more solvents, drying the crystals, and harvesting the final product so obtained. Unless otherwise specified, all percentages are percentages by weight, all temperatures are in degrees Centigrade (degrees Celsius), and all solvent ratios are volume to volume.
Aqueous solutions of sucralose were prepared at various carbohydrate concentrations. An equal volume of ethyl acetate was then added to each solution and the two phases mixed thoroughly. After the two phases separated, the carbohydrate concentration in each phase was determined. The K value was calculated by dividing the concentration of sucralose in the ethyl acetate phase by the concentration of sucralose in the aqueous phase.

| partition coefficient, K (initial concentration of sucralose in the aqueous phase about 5 wt %) | partition coefficient, K (initial concentration of sucralose in the aqueous phase about 15 wt %) | partition coefficient, K (initial concentration of sucralose in the aqueous phase about 16 wt %) | SMILES | partition coefficient compared with sucralose (organic solvent such as ethyl acetate and water, equal volumes, same conditions as sucralose) |
| --- | --- | --- | --- | --- |
| 0.4 | about 1.1 | about 1.2 | OC[C@H]1O[C@H](O[C@]2(CCl)O[C@H](CCl)[C@@H](O)[C@@H]2O)[C@H](O)[C@@H](O)[C@H]1Cl [sucralose, 4,1′,6′-trichloro-4,1′,6′-trideoxygalactosucrose] | – |
| – | – | – | CC(=O)OC[C@H]1O[C@H](O[C@]2(CCl)O[C@H](CCl)[C@@H](O)[C@@H]2O)[C@H](O)[C@@H](O)[C@H]1Cl [sucralose-6-acetate] | larger that the corresponding value for sucralose |
